Results reported in patent US7357914B2, “Use of metal chelates in human or animal feeding” (Agristudio S.R.L., priority 2002, dated 2008).
Values joined by “and” are separate entries in the source; they are usually repeats but may differ in a detail not shown here. Equal entries are not always repeated.

Tests used:
[1] = feeding test in weaned pigs, zinc source in food (growth, zinc retention, tissue minerals); assay type: in vivo; conditions: for Daily increase / Final living weight: about 27 days; for Final net weight: body weight without content of the digestive tube; for Diet: food intake, 50 ppm zinc from the source; for Daily net increase: net weight
Description: Two test groups of pigs (Control and Test) of 35 days of age and weaned at 19 days, were administered a food differing only in the zinc source. […] The two groups of animals were balanced by nest, living weight and sex and were fed for 27 days. Other 4 animals were immediately sacrificed and a sampling was made of them according to the following procedure. The two groups of animals were weighed before starting the test and after 27 days. At the end of the test the pigs were sacrificed and stomach, intestine, left kidney and liver were removed from every pig. Stomach and intestine were emptied and weighed again so as to obtain the net weight of said organs. A sample of kidney, liver and brain was taken and frozen. Stomach, intestine, left kidney and liver were then put together with the remaining carcass and homogenized with a mixer. A sample was then taken from the mass thus obtained and frozen. The samples were then dehydrated with a dehydrating device and underwent chemical analysis. The level of zinc, copper and iron were determined on the lyophilized samples by atomic absorption spectroscopy. The body levels of zinc were referred to the product. On the basis of the body's “net” weight (i.e. without the content of the digestive tube) and of its content of zinc at test beginning and end it was possible to determine also daily zinc retention.

[2] = water solubility of the isolated iron (II) chelate; assay type: physicochemical; conditions: pale yellow powder
Source text: After filtration and washing the chelated product is then dried so as to reduce the amount of absorbed water.

[3] = feeding test in female Charolaise calves, zinc source in diet (zootechnical performance); assay type: in vivo
Description: Living weight at test beginning and end, dead weight and slaughtering yield were determined for each animal.

[4] = pigs, 50 ppm zinc from the source in food
[5] = pigs, lyophilized samples, atomic absorption
[6] = single calves 1-6 of each group, Table 5, listed as TEST

O=S(=O)([O-])[O-].[Zn+2] [zinc sulfate, reference compound]
Daily increase [1, 4]: 321 g | Final living weight [1, 4]: 16.20 kg | Final net weight ([1]; pigs): 15.76 kg | Diet ([1]; pigs): 548 g | Daily Zn retention ([1]; pigs, from net body weight and body zinc content at test beginning and end): 5.27 mg | Brain Copper content [1, 5]: 23.3 | Brain Iron content [1, 5]: 80.6 | Brain Zinc content [1, 5]: 47.6 | Kidney Copper content [1, 5]: 40.2 | Kidney Iron content [1, 5]: 179 | Kidney Zinc content [1, 5]: 82.3 | Liver Copper content [1, 5]: 62.5 mg/kg | Liver Zinc content [1, 5]: 300 mg/kg | Daily net increase ([1]; pigs): 313 g

CSCCC(O)C(=O)[O-].CSCCC(O)C(=O)[O-].O.O.[Fe+2] (centres unmarked) [(CH3SCH2CH2CH(OH)COO)2Fe.2H2O]
water solubility [2]: little water soluble

CSCCC(O)C(=O)[O-].CSCCC(O)C(=O)[O-].O.O.[Zn+2] (centres unmarked) [zinc chelate, (CH3SCH2CH2CH(OH)COO)2Zn.2H2O]
Brain Copper content ([1]; pig, in vivo): 28.1 | Brain Iron content ([1]; pig, in vivo): 100.9 | Brain Zinc content ([1]; pig, in vivo): 53.9 | Daily Zn retention ([1]; pig, in vivo): 5.40 mg | Kidney Copper content ([1]; pig, in vivo): 55.0 | Kidney Iron content ([1]; pig, in vivo): 244 | Kidney Zinc content ([1]; pig, in vivo): 97.5 | Liver Copper content ([1]; pig, in vivo): 63.6 mg/kg | Liver Iron content ([1]; pig, in vivo): 240 | Liver Zinc content ([1]; pig, in vivo): 292 mg/kg | Conversion index [1, 4]: 1.68 | Daily increase [1, 4]: 327 g | Final living weight [1, 4]: 16.14 kg | Final net weight ([1]; pigs): 15.57 kg | Diet ([1]; pigs): 544 g | Daily net increase ([1]; pigs): 314 g | Final weight ([3]; calves, 90 days, 700 mg zinc daily, group value, Table 4, in kg): 652. | carcass weight ([3]; calves, 90 days, P<0.01): 377 kg | Daily increase ([3]; calves, 90 days, group value, Table 4): 1,039. | carcass weight ([3]; calves, 90 days, group value, Table 4, in kg): 377. | Final weight ([3]; calves, 90 days, p<0.05): 652 kg | daily weight increase ([3]; calves, 90 days, p<0.05): 1,039 g | yield ([3]; calves, slaughtering yield, p<0.01): 57.83% | Dead weight [3, 6]: 421 kg and 457 kg and 398 kg and 378 kg and 320 kg and 318 kg | Final weight [3, 6]: 724.61 kg and 789.29 kg and 686.21 kg and 653.98 kg and 557.49 kg and 548.28 kg | Total increase [3, 6]: 99.0 kg and 112.5 kg and 103.5 kg and 90.00 kg and 81.00 kg and 80.10 kg
